{"source": "patent US10973906B2", "about": "“Therapeutic peptides and vaccines” (priority 2005, dated 2021)", "molecules": {"B1": {"name": "MIP-1β: CCR5 selective chemokine ligand (protein)", "chain": "APMGSDPPTACCFSYTARKLPRNFVVDYYETSSLCSQPAVVFQTKRSKQVCADPSESWVQEYVYDLELN"}}, "note": "Where a SMILES comes first, the peptide text is derived from it."}
{"biological_target": "T1, CCR5 (Homo sapiens, UniProt P51681)", "T1 construct": "expressed in transfected cells; host or cells: ChfTh-CCR5 expressing cells (so in the source)", "T1 sequence (P51681 whole entry)": "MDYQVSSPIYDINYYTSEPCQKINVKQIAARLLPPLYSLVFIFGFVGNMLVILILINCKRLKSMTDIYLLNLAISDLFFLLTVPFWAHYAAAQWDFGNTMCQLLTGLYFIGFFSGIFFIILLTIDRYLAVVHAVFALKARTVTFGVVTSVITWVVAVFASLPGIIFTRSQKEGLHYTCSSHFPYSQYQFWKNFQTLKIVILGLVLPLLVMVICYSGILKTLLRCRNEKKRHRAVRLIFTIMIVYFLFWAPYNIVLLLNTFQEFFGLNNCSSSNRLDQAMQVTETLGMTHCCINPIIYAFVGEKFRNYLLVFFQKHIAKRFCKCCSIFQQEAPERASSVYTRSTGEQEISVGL", "test": "biochemical", "format": "binding", "conditions": "not given", "protocol": "(§1) The antiviral assays are described in detail in the prior art (Ruff et al., 2001, Antiviral Res, 52, 63-75), which is hereby incorporated by reference, and will be here described only briefly.\n(§2) We prepared a novel FITC-labeled tracer from soluble gp120 proteins (25 μg/ml) using a Fluorescent Protein labeling kit (Roche Diagnostics GmBh). Binding assays were performed in binding buffer containing 50mM HEPES (Gibco), pH=7.4, 5 mM MgCl2, 1 mM CaCl2.6H20 (Sigma), 5% BSA (Sigma) and 0.1% NaN3, final volume 100 μl. Binding was carried out for 1 h at 37° C. in 96-well filter plates (Millipore) using several CCR5 expressing lines, as indicated. Unbound labeled proteins were removed by rapid vacuum filtration and washing using a 96-well plate manifold. Filters were counted with a fluorescent plate reader (Hewlett Packard) at 495/530 nm. Non-specific binding was determined in the absence of sCD4 and was subtracted from the gp120-FITC binding in presence of 100 nM sCD4 (total binding).", "units": {"EC50": "nM"}}
{"molecule": "C[C@@H](O)[C@H](NC(=O)[C@@H](N)CC(N)=O)C(=O)N[C@@H](CO)C(=O)N[C@@H](Cc1ccc(O)cc1)C(=O)N[C@@H](CCCNC(=N)N)C(=O)O", "note": "[NTSYR] (H-NTSYR-OH)", "EC50": 0.1}
{"molecule": "C[C@@H](O)[C@H](NC(=O)[C@H](Cc1ccc(O)cc1)NC(=O)[C@H](CO)NC(=O)[C@H](CO)NC(=O)[C@@H](N)CC(N)=O)C(=O)O", "note": "[NSSYT] (H-NSSYT-OH)", "EC50": 0.2}
{"molecule": "N=C(N)NCCC[C@H](NC(=O)[C@H](Cc1ccc(O)cc1)NC(=O)[C@H](CCC(=O)O)NC(=O)[C@H](CO)NC(=O)[C@@H](N)CC(N)=O)C(=O)O", "note": "[NSEYR] (H-NSEYR-OH)", "EC50": 0.08}
{"molecule": "N=C(N)NCCC[C@H](NC(=O)[C@H](Cc1ccc(O)cc1)NC(=O)[C@H](CCC(=O)O)NC(=O)[C@H](CO)NC(=O)[C@@H](N)CO)C(=O)O", "note": "[SSEYR] (H-SSEYR-OH)", "EC50": 0.3}
{"molecule": "NC(=O)C[C@H](NC(=O)[C@H](CO)NC(=O)[C@@H](N)CC(N)=O)C(=O)N[C@@H](Cc1ccc(O)cc1)C(=O)N[C@@H](CO)C(=O)O", "note": "[NSNYS] (H-NSNYS-OH)", "EC50": 0.5}
{"molecule": "C[C@@H](O)[C@H](N)C(=O)N[C@H](C(=O)N[C@@H](CO)C(=O)N[C@@H](Cc1ccc(O)cc1)C(=O)N[C@@H](CCCNC(=N)N)C(=O)O)[C@@H](C)O", "note": "[TTSYR] (H-TTSYR-OH)", "EC50": 0.1}
{"molecule": "CC[C@H](C)[C@H](NC(=O)[C@@H](N)[C@@H](C)O)C(=O)N[C@@H](CO)C(=O)N[C@@H](Cc1ccc(O)cc1)C(=O)N[C@@H](CCCNC(=N)N)C(=O)O", "note": "[TISYR] (H-TISYR-OH)", "EC50": 0.4}
{"molecule": "C[C@@H](O)[C@H](N)C(=O)N[C@H](C(=O)N[C@@H](CO)C(=O)N[C@@H](Cc1ccc(O)cc1)C(=O)N[C@H](C(=O)O)[C@@H](C)O)[C@@H](C)O", "note": "[TTSYT] (H-TTSYT-OH)", "EC50": 0.05}
{"molecule": "N=C(N)NCCC[C@H](NC(=O)[C@H](Cc1ccc(O)cc1)NC(=O)[C@H](CO)NC(=O)[C@H](CO)NC(=O)[C@@H](N)CC(N)=O)C(=O)O", "note": "[NSSYR] (H-NSSYR-OH)", "EC50": 0.04}
{"molecule": "N=C(N)NCCC[C@H](NC(=O)[C@H](Cc1ccc(O)cc1)NC(=O)[C@H](CCCNC(=N)N)NC(=O)[C@H](CC(N)=O)NC(=O)[C@@H](N)CC(N)=O)C(=O)O", "note": "[NNRYR] (H-NNRYR-OH)", "EC50": 0.2}
{"molecule": "C[C@@H](O)[C@H](N)C(=O)N[C@@H](CO)C(=O)N[C@@H](CC(N)=O)C(=O)N[C@@H](Cc1ccc(O)cc1)C(=O)N[C@@H](CO)C(=O)O", "note": "[TSNYS] (H-TSNYS-OH)", "EC50": 0.2}
{"molecule": "N=C(N)NCCC[C@H](NC(=O)[C@H](Cc1ccc(O)cc1)NC(=O)[C@H](CO)NC(=O)[C@H](CO)NC(=O)[C@@H](N)Cc1ccc(O)cc1)C(=O)O", "note": "[YSSYR] (H-YSSYR-OH)", "EC50": 0.6}
{"biological_target": "T1, CCR5", "test": "not given", "format": "binding", "conditions": "10 nM", "protocol": "as §1, §2\n(§3) These studies are illustrated in FIG. 4. Total specific binding was defined as the difference in binding of FITIC-gp120 with or without added sCD4 (100 nM).\n(§4) Data shown (panels A-C) are the mean and […] of three experiments, each with triplicate determinations. Analyses were performed by PRISM."}
{"molecule": "B1", "inhibition of binding of gp120 proteins Bal and CM235": "inhibited"}
{"biological_target": "T1, CCR5", "test": "not given", "format": "binding", "conditions": "gp120BaL/sCD4, Cf2Th/synR5 cells", "protocol": "as §1, §2, §3, §4"}
{"molecule": "B1", "inhibition of binding of gp120BaL/sCD4 to CCR5": "completely inhibited"}
